From patent US20260376293A1, “METHODS FOR STUDYING GPR158 PHARMACOLOGY AND IDENTIFICATION OF ITS LIGANDS” (UNIVERSITY OF FLORIDA RESEARCH FOUNDATION, INCORPORATED, priority 2022, published 2026) come the findings set out here.

SMILES strings stand for the structures.

The assay has as its target T1, GPR158 (Homo sapiens, UniProt Q5T848).
T1 sequence (Q5T848 24-1215): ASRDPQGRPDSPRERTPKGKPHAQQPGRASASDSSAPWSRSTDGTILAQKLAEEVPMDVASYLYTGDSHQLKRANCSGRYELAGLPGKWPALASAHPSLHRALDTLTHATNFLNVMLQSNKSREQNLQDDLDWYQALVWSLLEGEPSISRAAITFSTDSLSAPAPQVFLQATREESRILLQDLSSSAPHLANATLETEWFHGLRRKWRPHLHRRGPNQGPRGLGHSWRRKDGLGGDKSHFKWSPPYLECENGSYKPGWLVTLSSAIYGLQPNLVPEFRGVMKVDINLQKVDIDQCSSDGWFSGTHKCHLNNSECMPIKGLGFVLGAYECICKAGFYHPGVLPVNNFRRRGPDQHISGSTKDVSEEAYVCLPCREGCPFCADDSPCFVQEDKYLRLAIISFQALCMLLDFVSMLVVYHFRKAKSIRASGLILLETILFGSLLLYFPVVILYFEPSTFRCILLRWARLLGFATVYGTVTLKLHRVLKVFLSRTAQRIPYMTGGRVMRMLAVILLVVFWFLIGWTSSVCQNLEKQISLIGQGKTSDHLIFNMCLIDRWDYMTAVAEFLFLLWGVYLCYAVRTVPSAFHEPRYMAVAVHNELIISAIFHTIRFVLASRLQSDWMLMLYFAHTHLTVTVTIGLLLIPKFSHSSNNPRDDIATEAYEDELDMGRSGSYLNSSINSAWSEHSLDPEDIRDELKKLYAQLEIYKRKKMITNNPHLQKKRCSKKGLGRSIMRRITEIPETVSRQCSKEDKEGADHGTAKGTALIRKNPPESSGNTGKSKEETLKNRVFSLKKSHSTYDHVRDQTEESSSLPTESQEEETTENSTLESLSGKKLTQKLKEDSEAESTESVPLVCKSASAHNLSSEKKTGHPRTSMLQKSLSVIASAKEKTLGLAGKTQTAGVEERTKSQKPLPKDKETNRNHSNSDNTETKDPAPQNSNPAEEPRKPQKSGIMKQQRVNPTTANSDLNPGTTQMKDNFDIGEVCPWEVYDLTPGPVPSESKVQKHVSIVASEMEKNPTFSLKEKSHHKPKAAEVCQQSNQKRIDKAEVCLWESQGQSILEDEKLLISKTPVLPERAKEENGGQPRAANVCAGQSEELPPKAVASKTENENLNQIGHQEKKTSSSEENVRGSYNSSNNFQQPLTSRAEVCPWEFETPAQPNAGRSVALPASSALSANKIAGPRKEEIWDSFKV
Kind of assay: BRET G protein activation assay. In kind it is cell-based. Particulars: panel of Gα subunits; 0.1 mM; HEK293 cells. On the set-up: expressed in transfected cells; host or cells: HEK293FT. As for the experimental part:
FIGS. 5A-5I. Lack of the effects of glycine or taurine on GPR158 coupling to G proteins. A) Schematic of the assay design to monitor GPCR induced G protein activation. B-I) Representative traces evaluating G protein activation in BRET-based assay. The assay measures generation of the BRET signal between Gβγ and its reporter masGRK3CT-NLuc co-transfected into HEK293 cells with indicated Gα. The reaction is initiated by the addition of glycine (0.1 mM, square symbols) or taurine (0.1 mM triangle symbols) to GPR158 expressing cells. Control reactions conducted in parallel utilized canonical receptors and their ligands at 0.1 mM. The arrow indicates the injection time point of the ligand.
The inventors further tested whether glycine or taurine could induce GPR158 to activate G proteins as canonical GPCRs do. In these experiments, the inventors used a reverse strategy where the inventors monitored generation of the BRET signal in the same assay (FIG. 5A).
Measurements of BRET between Venus-Gβ1γ2 and masGRK3ct-Nluc were performed to monitor the release of free Gβγ dimers after activation of heterotrimers containing Gα subunits in living cells (described in detail in Masuho et al., 2015 (40)). […] An empty vector pcDNA3.1(±) was used in order to normalize the quantity of transfected DNA. […]
(BRET reads energy transfer from a luciferase to a nearby fluorophore.)

On to `NCC(=O)O` [glycine], for which the “G protein activation via GPR158” value was “no significant signal generation”. `NCCS(=O)(=O)O` [taurine, 2-aminoethanesulfonic acid]: the “G protein activation via GPR158” value is reported as “no significant signal generation”.
